# Read-outs that look alike come from different tables or passages of the source.
# Tests used:
# CHO wild-type cells = experiment: DMR assay in CHO wild-type cells (control); assay type: cell-based; settings: for DMR response: CHO cells, compound 10 μM, mean ± s.e.m.
# Experimental: Confluent cells were sub-cultured using trypsin/EDTA and used for experiments. Cells were seeded at a density of 20,000 cells/well in 30 µL into fibronectin-coated EnspireTM-LC 384-well plates and cultured for 20 h to form a confluent monolayer. On the day of the experiment, the cells were manually washed twice and maintained with assay buffer (HBSS with 20 mM HEPES, 0.01% BSA) for 90 min before DMR experiments. DMR was monitored in real time with a temporal resolution of 44 s throughout the assay. Experiments were performed at 37°C using an EnSight Multimode Plate Reader (PerkinElmer). The agonism protocol was as follows: before addition of the ligand, the DMR signal was measured for 5 min, and the average of the signals recorded during this period was set as the baseline (pm = 0). Compounds are added manually in a volume of 10 µL, and the triggered DMR signals were recorded for 60 min. The antagonism protocol was as follows: antagonists were added manually 25 min before reading the 5 min baseline. […] Responses were described in the form of picometer shift over time (seconds) following the subtraction of values from vehicle-treated wells. Maximum picometer (pm) modification (peak) and area under the curve (AUC) were used to determine the agonist response.
# [1] = test system: human lung fibroblast proliferation; set-up: method as in Qian et al., 2012; settings: inhibiting LPA-induced human lung fibroblast proliferation; ref Qian et al., 2012; cited from earlier work
# human LPA1 receptor [2] = target: T1, human LPA1 receptor (Homo sapiens, UniProt Q92633); experiment: Calcium mobilization assay in CHOLPA1 cells; settings: for Effect per se: 1 µM, data not shown; for Shift of the concentration–response curve to LPA: antagonism protocol (compound 35, compound 20 at 1 µM); for Effect on LPA maximal effect: tested as antagonist
# T1 sequence (Q92633 whole entry): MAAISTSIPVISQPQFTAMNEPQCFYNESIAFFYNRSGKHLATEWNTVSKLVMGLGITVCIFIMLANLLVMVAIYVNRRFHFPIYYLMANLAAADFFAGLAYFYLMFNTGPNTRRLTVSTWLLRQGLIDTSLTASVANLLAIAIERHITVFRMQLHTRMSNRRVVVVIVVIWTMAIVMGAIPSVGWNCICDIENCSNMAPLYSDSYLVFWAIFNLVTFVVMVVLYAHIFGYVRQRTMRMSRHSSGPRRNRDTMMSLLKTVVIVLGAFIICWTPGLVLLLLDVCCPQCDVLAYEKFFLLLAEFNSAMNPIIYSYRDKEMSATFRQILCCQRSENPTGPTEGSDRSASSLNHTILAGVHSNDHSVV
# human LPA2 receptor [3] = target: T2, human LPA2 receptor (Homo sapiens, UniProt Q9HBW0); experiment: Calcium mobilization assay in CHOLPA2 cells; settings: for Effect per se / Shift of the concentration–response curve to LPA: 1 µM; for Effect per se: data not shown; for Agonism Emax / Agonism pEC50: #inactive at 1 μM; for Shift of the concentration–response curve to LPA: antagonism protocol
# T2 sequence (Q9HBW0 whole entry): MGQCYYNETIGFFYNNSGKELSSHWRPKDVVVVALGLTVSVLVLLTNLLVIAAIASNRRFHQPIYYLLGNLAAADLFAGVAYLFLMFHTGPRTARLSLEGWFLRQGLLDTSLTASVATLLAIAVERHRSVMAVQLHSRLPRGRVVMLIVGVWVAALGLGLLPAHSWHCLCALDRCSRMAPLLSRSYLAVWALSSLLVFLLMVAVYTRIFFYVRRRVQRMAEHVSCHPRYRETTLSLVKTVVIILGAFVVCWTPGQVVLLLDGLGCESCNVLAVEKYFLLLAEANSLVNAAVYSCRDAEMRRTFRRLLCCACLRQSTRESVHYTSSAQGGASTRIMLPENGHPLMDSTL
# human LPA1 receptor [4] = target: T1, human LPA1 receptor; experiment: Dynamic mass redistribution (DMR) assay in CHOLPA1 cells; settings: for EC50: Agonism pEC50, CHOLPA1, DMR; for Shift of the concentration–response curve to LPA: antagonism protocol; for Shift of the concentration–response curve to LPA / Effect on LPA maximal effect: 1 µM; for Agonism Emax: negative DMR signal; for Effect on LPA maximal effect: tested as antagonist; for DMR response: CHOLPA1 cells, compound 10 μM, mean ± s.e.m.
# Experimental: All data were analyzed using GraphPad Prism 9.4 (La Jolla, CA, United States). Concentration–response curves were fitted using the four-parameter log-logistic equation. Data are expressed in the form mean ± s.e.m. across n experiments performed in duplicate. Agonist potency is expressed in the form pEC50, which is the negative logarithm to base 10 of the agonist molar concentration that produces 50% of the maximal possible effect of that agonist. […] In practice, equiactive concentrations of the agonist in the absence ([A]) and presence ([A’]) of a non-competitive antagonist ([B]) were compared in a double reciprocal plot describing a straight line, and pKB was derived from the equation: pKB = log[(slope—1)/[B]]. […] Maximal effect data were analyzed using the Student’s t-test or a one-way ANOVA followed by Dunnett’s post-hoc test.
# human LPA2 receptor [5] = target: T2, human LPA2 receptor; experiment: Dynamic mass redistribution (DMR) assay in CHOLPA2 cells; settings: for DMR effect per se: concentration–response up to highest concentration tested; for Agonism Emax / Agonism pEC50: negative DMR signal, peak, up to 10 µM (compound 35 up to 1 µM), °inactive at 10 μM; for DMR response: CHOLPA2 cells, compound 10 μM, mean ± s.e.m.; for Shift of the concentration–response curve to LPA: antagonism protocol, 1 µM
# Experimental: Confluent cells were sub-cultured using trypsin/EDTA and used for experiments. Cells were seeded at a density of 20,000 cells/well in 30 µL into fibronectin-coated EnspireTM-LC 384-well plates and cultured for 20 h to form a confluent monolayer. On the day of the experiment, the cells were manually washed twice and maintained with assay buffer (HBSS with 20 mM HEPES, 0.01% BSA) for 90 min before DMR experiments. DMR was monitored in real time with a temporal resolution of 44 s throughout the assay. Experiments were performed at 37°C using an EnSight Multimode Plate Reader (PerkinElmer). The agonism protocol was as follows: before addition of the ligand, the DMR signal was measured for 5 min, and the average of the signals recorded during this period was set as the baseline (pm = 0). Compounds are added manually in a volume of 10 µL, and the triggered DMR signals were recorded for 60 min. […] Responses were described in the form of picometer shift over time (seconds) following the subtraction of values from vehicle-treated wells. Maximum picometer (pm) modification (peak) and area under the curve (AUC) were used to determine the agonist response.
# All data were analyzed using GraphPad Prism 9.4 (La Jolla, CA, United States). Concentration–response curves were fitted using the four-parameter log-logistic equation. Data are expressed in the form mean ± s.e.m. across n experiments performed in duplicate. […] In practice, equiactive concentrations of the agonist in the absence ([A]) and presence ([A’]) of a non-competitive antagonist ([B]) were compared in a double reciprocal plot describing a straight line, and pKB was derived from the equation: pKB = log[(slope—1)/[B]]. […] Maximal effect data were analyzed using the Student’s t-test or a one-way ANOVA followed by Dunnett’s post-hoc test.
# LPA2 receptor = target: LPA2 receptor; set-up: method as in Schiemann et al., 2012; settings: inhibition of LPA effects on Ca2+ mobilization, cells expressing LPA2; ref Schiemann et al., 2012; cited from earlier work
# LPA1/3 [6] = target: LPA1/3; set-up: method as in Ohta et al., 2003; settings: LPA1/3 antagonist; ref Ohta et al., 2003; read-out: Ki estimated from binding experiments; cited from earlier work
# LPA1/3 [7] = test system: LPA1/3; set-up: method as in Ohta et al., 2003; settings: ref Ohta et al., 2003; cited from earlier work
# LPA1 receptor [8] = test system: LPA1 receptor; set-up: method as in Ohta et al., 2003; settings: GTPγS binding assay; ref Ohta et al., 2003; cited from earlier work
# LPA1 receptor [9] = test system: LPA1 receptor; set-up: method as in Shimizu and Nakayama, 2017; settings: cAMP assay; ref Shimizu and Nakayama, 2017; cited from earlier work
# LPA1 receptor [10] = test system: LPA1 receptor; set-up: method as in Ohta et al., 2003; settings: inositol phosphate test; ref Ohta et al., 2003; cited from earlier work
# [11] = Antagonism pKB (pKB/pA2), CHOLPA1, calcium mobilization, Gaddum method, LPA curve in absence and presence of 0.1 µM antagonist
# [12] = CHOLPA1, calcium mobilization, *inactive at 0.1 µM
# [13] = negative DMR signal (inverse agonism), peak, up to 10 µM (compound 35 up to 1 µM), °inactive at 10 μM
# [14] = CHOLPA1, DMR, peak, up to 10 µM (compound 35 up to 1 µM), °inactive at 10 μM
# [15] = CHOLPA1, calcium mobilization, #inactive at 1 μM
SMILES,DMR response (CHO wild-type cells),Kb (human LPA1 receptor [2]; [11]),"Effect per se (human LPA1 receptor [2]; CHOLPA1, calcium mobilization)",Agonism Emax (human LPA1 receptor [2]; [12]),Agonism pEC50 (human LPA1 receptor [2]; [12]),"Shift of the concentration–response curve to LPA (human LPA1 receptor [2]; CHOLPA1, calcium mobilization)","Effect on LPA maximal effect (human LPA1 receptor [2]; CHOLPA1, calcium mobilization)","Effect per se (human LPA2 receptor [3]; CHOLPA2, calcium mobilization)","Agonism Emax (human LPA2 receptor [3]; CHOLPA2, calcium mobilization)","Agonism pEC50 (human LPA2 receptor [3]; CHOLPA2, calcium mobilization)",EC50 (human LPA1 receptor [4]; [13]),"Shift of the concentration–response curve to LPA (human LPA1 receptor [4]; CHOLPA1, DMR)",Agonism Emax (human LPA1 receptor [4]; [14]),"Effect on LPA maximal effect (human LPA1 receptor [4]; CHOLPA1, DMR)",DMR response (human LPA1 receptor [4]),"DMR effect per se (human LPA2 receptor [5]; CHOLPA2, DMR)","Agonism Emax (human LPA2 receptor [5]; CHOLPA2, DMR)","Agonism pEC50 (human LPA2 receptor [5]; CHOLPA2, DMR)",DMR response (human LPA2 receptor [5]),"Shift of the concentration–response curve to LPA (human LPA2 receptor [3]; CHOLPA2, calcium mobilization)",further results
Cc1nnn(-c2ccc(-c3ccc(C4(C(=O)O)CC4)cc3)cc2)c1NC(=O)O[C@H](C)c1ccccc1 [RO 6842262],−36 ± 12 pm,0.00204 µM,did not produce any effect per se,Inactive*,Inactive*,shifted the concentration–response curve to LPA to the right,reduced the LPA maximal effect in a concentration-dependent manner,did not produce any effect per se,Inactive^#,Inactive^#,0.049 µM,shifted the concentration–response curve to LPA to the right,−80 ± 16 pm,without changing the maximal effect,−66 ± 16 pm,"inactive per se, or slightly active only at the higher concentration tested",Inactive°,Inactive°,3 ± 21 pm,,Potency relative to KI 16425 [1]: 10 fold; LPA1 selectivity (vs. LPA2) (human LPA1 receptor [2]; assay not specified): > 30 fold
O=C1C[C@@](O)(C(F)(F)F)c2c(-c3cccc(F)c3)n[nH]c2N1 [Compound 20],−26 ± 8 pm,,did not produce any effect per se,,,did not shift the concentration–response curve to LPA to the right,,did not produce any effect per se,Inactive^#,Inactive^#,,did not shift the concentration–response curve to LPA to the right,Inactive°,,−31 ± 17 pm,,−94 ± 6 pm,,−119 ± 25 pm,shifted the concentration–response curve to LPA to the right,"DMR effect per se (CHO wild-type cells; CHO wild-type cells, 10 µM): failed to evoke effects per se; pIC50 (LPA2 receptor): > 6; Kb (human LPA1 receptor [2]; Antagonism pKB/pA2, CHOLPA1, calcium mobilization, LPA curve in absence and presence of 1 µM compound): > 1 µM; Agonism Emax (human LPA1 receptor [2]; [15]): Inactive^#; Agonism pEC50 (human LPA1 receptor [2]; [15]): Inactive^#; Kb (human LPA2 receptor [3]): 0.0562 µM; Effect on LPA maximal effect (human LPA2 receptor [3]; CHOLPA2, calcium mobilization, tested as antagonist): induced a reduction in LPA maximal effects; Agonism pEC50 (human LPA1 receptor [4]; CHOLPA1, DMR, negative DMR signal (inverse agonism), peak, up to 10 µM (compound 35 up to 1 µM), °inactive at 10 μM): Inactive°; DMR effect per se (human LPA1 receptor [4]; CHOLPA1, DMR, up to highest concentration tested (10 μM; compound 35 1 µM)): inactive up to 10 μM; EC50 (human LPA2 receptor [5]): 0.148 µM; Shift of the concentration–response curve to LPA (human LPA2 receptor [5]; CHOLPA2, DMR): shifted the concentration–response curve to LPA to the right; Agonism Emax (human LPA2 receptor [5]; CHOLPA2, DMR, listed as Merck compound 20): −94 pm; Time of maximum peak modification of the DMR response after administration (human LPA2 receptor [5]; CHOLPA2, DMR, slow onset): ~60 min"
Cc1noc(-c2ccc(CSCCC(=O)O)cc2)c1NC(=O)OC(C)c1ccccc1Cl (stereo not shown) [KI 16425],−42 ± 7 pm,0.00309 µM,did not produce any effect per se,Inactive*,Inactive*,shifted the concentration–response curve to LPA to the right,reduced the LPA maximal effect in a concentration-dependent manner,did not produce any effect per se,Inactive^#,Inactive^#,0.0676 µM,shifted the concentration–response curve to LPA to the right,−110 ± 17 pm,without changing the maximal effect,−101 ± 7 pm,"inactive per se, or slightly active only at the higher concentration tested",Crc incomplete,Crc incomplete,−95 ± 4 pm,shifted the concentration–response curve to LPA to the right,"Ki (LPA1/3 [6]): 0.67 µM; Selectivity for LPA1/3 vs. LPA2 (LPA1/3 [7]): 20 fold; Inverse agonism activity (LPA1 receptor [8]): slight degree of inverse agonism activity; Inverse agonism activity (LPA1 receptor [9]): slight degree of inverse agonism activity; Inverse agonism activity (LPA1 receptor [10]): this has not been replicated; Antagonism pKB (pKB/pA2) (human LPA1 receptor [2]; CHOLPA1, calcium mobilization, Gaddum method, LPA curve in absence and presence of 0.1 µM antagonist): ~8.5; Shift of the concentration–response curve to LPA (human LPA2 receptor [5]; CHOLPA2, DMR): shifted the concentration–response curve to LPA to the right"

# Source: PMC10682101, “In vitro pharmacological characterization of standard and new lysophosphatidic acid receptor antagonists using dynamic mass redistribution assay” (Frontiers in Pharmacology, 2023)
